# Results reported in patent publication US12208130B2, “Treatment of women affected with polycystic ovary syndrome” (INSTITUT NATIONAL DE LA SANTE ET DE LA RECHERCHE MEDICALE …, priority 2017, dated 2025).
# Where a SMILES comes first, the peptide text is derived from it. [ ]: non-standard residue; d: D form. dPhe(4-Cl) = N[C@H](Cc1ccc(Cl)cc1)C(=O)O; d2Nal = N[C@H](Cc1ccc2ccccc2c1)C(=O)O; dCit = NC(=O)NCCC[C@@H](N)C(=O)O; d3Pal = N[C@H](Cc1cccnc1)C(=O)O
# Columns and labels:
# [1] = system: placenta; assay: Quantitative RT-PCR of E19.5 placental tissue; assay type: in vivo, mouse; conditions: dams i.p. AMH + GnRH antag E16.5-E18.5; placenta E19.5
# Method: PAMH+GnRH antag. (FIG. 3D) Schematic representation of tail-tip blood sampling in adult diestrus female mice (3-4 months old). (FIG. 3E) Tail blood was collected every 10 min for 2 h and LH measured from 10 a.m-12 p.m in adult (P60) diestrus females (Control, n=8; PAMH, n=10; PAMH+GnRH antag, n=9; One-way ANOVA and Tukey's multiple comparison post hoc test, F(2,24)=57.06, *P<0.05, ***P<0.0001). Bars from left to right: Control, PAMH, PAMH+GnRH antag. (FIGS. 2F-1, 2F-2, 2F-3) Representative graphs for LH pulsatility over 2-hr in one female adult (P60) mouse of each treatment. Asterisks in (FIG. 3F) indicate the number of LH pulses/2-hr. (FIG. 3G) Mean circulating testosterone and LH levels were analyzed in pregnant PBS-treated (n=4) and AMH-treated (n=4) dams at embryonic day (E) 19.5 of gestation. […] (FIG. 3H) Relative mRNA expression of placental Cyp191a (aromatase) in control (n=4) and AMH (n=4)-treated pregnant animals at E19.5. Cyp191a expression in the placenta is […] in AMH-treated pregnant dams as compared to control-treated pregnant dams (Unpaired Student's t-test, t(6)=5.414, **P<0.005). Values are expressed as relative to the mean of each treatment. All values are expressed as mean±s.e.m. (FIGS. 3I-1, 3I-2, 3I-3, 3I-4) Dams were injected from E16.5 to E18.5 with either PBS (vehicle, n=9-11), AMH (n=8-10), AMH+GnRH antag (n=5) and trunk blood was collected at E19.5 for hormonal measurements by ELISA. Data were combined from at least two independent experiments. In FIGS. 3I-1, 3I-2, 3I-3, 3I-4: left bar: vehicle; middle bar: AMH; right bar: AMH+GnRH antagonist. (FIGS. 3J-1, 3J-2, 3J-3, 3J-4)) Real-time PCR analysis of expression levels of AMHR2, CYP191A (cytochrome P450 family 19A1, aromatase), CYP11A1 (cytochrome P450 family 11A1), HSD3B1 (3beta-hydroxysteroid dehydrogenase/delta(5)-delta(4)isomerase type I or hydroxy-delta-5-steroid dehydrogenase) mRNA in the placenta of E19.5 dams. Dams were injected i.p. from E16.5 to E18.5 with either PBS (vehicle, n=8-17), AMH (n=7-11), or AMH+GnRH antag (n=8-13). Data were combined from three independent experiments. […] In FIGS. 3J-1, 3J-2, 3J-3, 3J-4: left bar: vehicle; middle bar: AMH; right bar: AMH+GnRH antagonist.
# E19.5 placental tissue from female control and PAMH embryos was isolated for total RNA was using Trizol (ThermoFisher Scientific, Cat #15596026) and the RNeasy Lipid Tissue Mini Kit (Qiagen; Cat #74804) using the manufacturer's instructions. For gene expression analyses, mRNAs […] from E19.5 placental tissue were reverse transcribed using SuperScript® IV Reverse Transcriptase (Life Technologies). Real-time PCR was carried out on Applied Biosystems 7900HT Fast Real-Time PCR system using exon-boundary-specific TaqMan® Gene Expression Assays (Applied Biosystems): Amhr2 (AMHR2-Mm00513847_m1); Cyp19a1 (Cyp19a1-Mm00484049_m1); Cyp11a1 (Cyp11a1-Mm00490735_m1); HSD3b1 (Hsd3b1-Mm01261921_mH); GnRH (Gnrh-Mm01315604_m1); GnRH-R (Gnrhr-Mm00439143_m1); LH-R (Lhcgr-Mm00442931_m1). Control housekeeping genes: ActB (ActB-Mm00607939_s1); GAPDH (GAPDH-Mm99999915_g1).
# Quantitative RT-PCR was performed using TaqMan® Low-Density Arrays (Applied Biosystems) on an Applied Biosystems thermocycler using the manufacturer's recommended cycling conditions. Gene expression data were analyzed using SDS 2.4.1 and Data Assist 3.01 software (Applied Biosystems), with ActB and GAPDH as control house-keeping mRNA following a standardized procedure. […]
# [2] = system: P0 pups; assay: LH and T measurement in P0 mice; assay type: in vivo, mouse; conditions: prenatal GnRH antagonist administration with AMH
# Method: FIGS. 4A-4C-2. Prenatal AMH treatment increases perinatal T levels in females and masculinizes their brain. (FIG. 4A) Plasma T and LH levels were measured in pups 2 hours after birth (males, n=5; control females, n=5; PAMH females, n=4; PAMH females+GnRH antag, n=6). (FIG. 4B) TH immunoreactive (-ir) neurons in the AVPV were quantified in these animal groups (n=3 per sex and treatment). The number of AVPV TH-ir neurons are represented as the mean±s.e.m. (One-way ANOVA and Tukey's multiple comparisons post-hoc test, F(2,6)=231.1, ***P<0.0001). In FIG. 4B: left bar: male; middle bar: control female; right bar: PAMH female. (FIGS. 4C-1, 4C-2)
# For the analysis of circulating LH and T levels, animals were decapitated and trunk blood from adult (P60) animals and P0 pups (1-2 hrs after birth) were collected in sterile Eppendorf tubes and left on ice until centrifugation. Plasma was collected and stored at −80° C. until use. LH levels were determined by a sandwich ELISA, as described previously (Vidal et al., 2012, PloS one, Vol. 7: e39001), using the mouse LH-RP reference provided by A. F. Parlow (National Hormone and Pituitary Program, Torrance, CA). Plasma T levels were analyzed using a commercial ELISA (Demeditec Diagnostics, GmnH, DEV9911) (Moore et al., 2015, Proc Natl Acad Sci USA, Vol. 112: 596-601) according to the manufacturers' instructions. […]
structure (smiles),measurement,setting,value
"CC(=O)N[C@H](Cc1ccc2ccccc2c1)C(=O)N[C@H](Cc1ccc(Cl)cc1)C(=O)N[C@H](Cc1cccnc1)C(=O)N[C@@H](CO)C(=O)N[C@@H](Cc1ccc(O)cc1)C(=O)N[C@H](CCCNC(N)=O)C(=O)N[C@@H](CC(C)C)C(=O)N[C@@H](CCCNC(=N)N)C(=O)N1CCC[C@H]1C(=O)N[C@H](C)C(N)=O [Cetrorelix acetate, Ac-D-2Nal-D-Phe(4-Cl)-D-3Pal-Ser-Tyr-D-Cit-Leu-Arg-Pro-D-Ala-NH2] (Ac-[d2Nal][dPhe(4-Cl)][d3Pal]SY[dCit]LRP[dA]-NH2)",AMH-driven downregulation of placental HSD3B1 gene expression,[1],prevented the downregulation
same,AMH-driven inhibition of placental CYP19A1 mRNA,[1],prevented
same,placental CYP11A1 expression,[1],did not find any difference
same,placental LHR expression,[1],normalized
same,placental expression of GnRH and GnRHR,[1],unchanged
same,neonatal T and LH surges of PAMH female pups,[2],corrected
